These results are taken from paper PMC6826021 (Disease Models & Mechanisms, 2019).

Data set [1] relates to Ca2+ influx in Etx-treated MDCK cells. Format: cell-based, canine.
Data set [2] concerns Etx-treated MDCK cells. Type of data set: cell-based, canine.
A further data set concerns Etx. The conditions noted are these: cited from earlier work.
Data set [3] has as its system Etx-treated MDCK cells. Format: cell-based, canine. The source holds these as a separate data set.
The target of data set [4] is Etx monomer binding to MDCK cells (Clostridium perfringens, UniProt Q02307). Format: cell-based.
Chain of Etx monomer binding to MDCK cells (Q02307 46-306 limits assumed): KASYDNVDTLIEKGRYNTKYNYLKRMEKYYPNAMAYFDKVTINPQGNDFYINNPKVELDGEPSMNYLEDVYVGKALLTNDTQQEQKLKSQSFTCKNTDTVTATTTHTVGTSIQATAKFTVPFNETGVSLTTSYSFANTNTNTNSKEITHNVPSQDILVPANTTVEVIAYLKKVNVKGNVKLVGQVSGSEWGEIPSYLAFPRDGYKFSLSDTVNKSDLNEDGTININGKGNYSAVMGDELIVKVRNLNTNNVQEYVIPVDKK
In another data set the test system is C57BL/6 mice. Conditions: mouse, in vivo.
Data set [5] deals with Etx-challenged C57BL/6 mice. Conditions: mouse, in vivo.
For data set [6], the system named is mitochondrial membrane potential in Etx-treated MDCK cells. Type of data set: cell-based, canine.
Data set [7] addresses Etx heptamer (oligomerization) (Clostridium perfringens, UniProt Q02307). Format: cell-based.
Data set [8] deals with ROS in Etx-treated MDCK cells. Type of data set: cell-based, canine.
The subject of data set [9] is HMGB1 translocation in Etx-treated MDCK cells. Format: cell-based, canine.
In data set [10] the target is Etx pore formation in DPPC/cholesterol liposomes (Clostridium perfringens, UniProt Q02307). Format: biochemical.
Chain of Etx pore formation in DPPC/cholesterol liposomes (Q02307 46-306 limits assumed): as above
The target in a further data set is Etx-Etx monomers (Clostridium perfringens, UniProt Q02307). Type of data set: binding.
Chain of Etx-Etx monomers (Q02307 46-306 limits assumed): as above

Chain of Etx heptamer (oligomerization) (Q02307 46-306 limits assumed): as above

For the compound `O=C(O)CN(CCOCCOCCN(CC(=O)O)CC(=O)O)CC(=O)O` [EGTA, reference compound], the “Ca2+ influx, Fluo-4 AM intensity by FACS” value in data set [1] was “blocked the Etx-invoked influx”.
As for `CCCOC1O[C@H](CO)[C@@H](O)[C@H](O)[C@H]1O` (stereo partly drawn) [Glycoside-2], in the data set with Etx-treated MDCK cells [2], the “protection of Etx-treated MDCK cells” value was “concentration-dependent protection” and the “survival of Etx-challenged MDCK cells compared to Etx” value (from here on “survival … compared to Etx”) is “greater than 50%”.
As for `c1ccc2c(c1)Cc1cccc3noc-2c13` [6H-anthra[1,9-cd]isoxazol], the “inhibition of Etx binding or oligomerization” value in the data set with Etx is reported as “none of them could inhibit”.
`CCCCCCOC1O[C@H](CO)[C@@H](O)[C@H](O)[C@H]1O` (stereo partly drawn) [Glycoside-6]: in the data set on Etx-treated MDCK cells [2], the “protection of Etx-treated MDCK cells” value is reported as “concentration-dependent protection” and the “survival … compared to Etx” value is “greater than 50%”.
In the case of `c1ccc2nc3occc3cc2c1` [furo[2,3-b]quinoline], the “inhibition of Etx binding or oligomerization” value with Etx was “none of them could inhibit”.
Regarding `CCCCOC1O[C@H](CO)[C@@H](O)[C@H](O)[C@H]1O` (stereo partly drawn) [Glycoside-4], in the data set with Etx-treated MDCK cells [3], the “PI+ cells” value was “drastic reduction in PI^+ cells” and the “annexin V+/PI+ cells (phosphatidylserine exposure)” value is recorded as “absence of annexin V^+/PI^+ cells”. In addition, in data set [4], the “effect on binding of Etx monomer to the cell membrane” value is on record as “no effect”. Besides, the “mortality or clinical signs (seizures, convulsions and depression)” value in the data set with C57BL/6 mice was “No mortality or clinical signs”. Besides, in data set [5], the mice protected was 60%, the “mice with improved liver (H&E)” value turned out to be 60% and the “mice with protected brain structures (H&E)” value was found to be 60%. The compound further displayed a death rate in data set [5] (ip, 50 mg/kg) of 40%. In addition, the “mitochondrial membrane potential (ΨΔm), JC-1” value in data set [6] is given as “could stabilize ΨΔm”. The “effect on Etx heptamer (oligomer) intensity” value in data set [7] is “substantial decrease in heptamer intensity”. Besides, the “ROS levels, DCFDA” value in data set [8] is “decreased levels of ROS”. Further, in data set [9], the HMGB1 localization entry is listed as “largely remained in the nucleus”. In [1], the “Ca2+ entry, Fluo-4 AM fluorescence microscopy” value is listed as “complete reduction in Ca^2+ entry” and the “Ca2+ influx, Fluo-4 AM intensity by FACS” value is listed as “drastic reduction of Fluo-4 AM intensity”. Also, the “effect on pore formation in Etx-treated liposomes” value in data set [10] is reported as “tearings disappeared”. The “Etx (protein-protein) interaction in SPR” value on Etx-Etx monomers is on record as “no Etx (protein-protein) interaction could be seen”. In the data set with Etx-treated MDCK cells [2], the “cell survival upon Etx challenge (MTT), pre- and post-treatment” value is “increase in cell survival”; the “protection of Etx-treated MDCK cells” value is “highest survival efficiency”; the “survival … compared to Etx” value is reported as “greater than 50%”.
With `C[C@H](CCC(=O)O)C[C@H](C)C[C@H](C)C(=O)/C=C(\O)[C@H](C)C[C@H](C)C/C=C/[C@@H](C)[C@@H](O)[C@@H](C)[C@@H](O)C[C@@H]1CC[C@@](C)([C@H]2CC[C@@](C)([C@@H](C)O)O2)O1` [ionomycin, reference compound], the “Ca2+ influx, Fluo-4 AM intensity by FACS” value in data set [1] is reported as “Clear intensity shift”.
